Laboratory results: publication PMC10197133, “Synthesis, Computational Insights, and Evaluation of Novel Sigma Receptors Ligands” (ACS Chemical Neuroscience, 2023)
Entries after “also recorded” stand apart in the source; their conditions may differ.

Key:
[1] = system: capsaicin-induced mechanical hypersensitivity in mice; assay: Capsaicin-induced secondary mechanical hypersensitivity (allodynia); assay type: in vivo, female CD1 mice; conditions: for antiallodynic effect, compound administered alone / dose reaching full reversal of mechanical hypersensitivity (maximum antiallodynic effect): s.c.; for antiallodynic effect, compound administered alone: 30 min before capsaicin 1 μg i.pl., paw withdrawal latency at 0.5 g force, 4b 5–20 mg/kg, PRE-084 32 mg/kg; for S1R functional profile in vivo: concluded from the capsaicin model; for antiallodynic effect when associated with the S1R agonist PRE-084: PRE-084 32 mg/kg s.c. 5 min before, BD-1063 40 mg/kg, 8f and 5b 20 mg/kg s.c.; for dose reaching full reversal of mechanical hypersensitivity (maximum antiallodynic effect): capsaicin 1 μg i.pl., mice
Method: We used capsaicin-induced secondary hypersensitivity (allodynia) as a pain model. It has been described that the increase in mechanical sensitivity in the area surrounding capsaicin injection (area of secondary allodynia) is due to central sensitization, which is a relevant process for chronic pain development and maintenance.[48]
Experiments were performed in female CD1 mice (Charles River, Barcelona, Spain) weighing 25–30 g. The mice were acclimated in our animal facilities for at least 1 week before testing and housed in a room under controlled environmental conditions: 12/12 h day/night cycle, air replacement every 20 min, and regulated temperature (22 ± 2 °C). The animals were fed a standard laboratory diet (Harlan Teklad Research Diet, Madison, Wisconsin) and tap water ad libitum until the beginning of the experiments. Testing was always performed from 9.00 to 15.00 h and randomly throughout the oestrous cycle. Animal care was made in accordance with institutional (Research Ethics Committee of the University of Granada, Spain), regional (Junta de Andalucía, Spain), and international standards (European Communities Council Directive 2010/63).
As selective S1R drugs, we used the S1R antagonist BD-1063 (1-[2-(3,4-dichlorophenyl)ethyl]-4-methylpiperazine dihydrochloride) and the S1R agonist PRE-084 (2-(4-morpholinethyl)-1-phenyl cyclohexane carboxylate hydrochloride) (both provided by Tocris Cookson, Bristol, U.K.).[57] The standard or experimental compounds were dissolved in 5% DMSO (Merck KGaA, Darmstadt, Germany) in physiological sterile saline (0.9% NaCl). They were prepared immediately before the start of the experiments and injected s.c. in a volume of 5 mL/kg into the interscapular area.
To test for the antiallodynic effects of BD-1063, 4b, 5b, or 8f, they were administered 30 min before the injection of capsaicin, used as the chemical algogen. To test the effects of PRE-084 or 4b on the antiallodynia induced by BD-1063, 8f, or 5b, the former were administered 5 min before the latter. When the effect of the association of several drugs was assessed, each injection was performed in different areas of the interscapular zone to avoid mixture of the drug solutions and any physicochemical interaction between them.
Capsaicin (Sigma-Aldrich Química S.A.) was dissolved in 1% DMSO in physiological sterile saline to a concentration of 0.05 μg/μL (i.e., 1 μg per mouse). Capsaicin solution was injected intraplantarly (i.pl.) into the right hind paw proximate to the heel, in a volume of 20 μL using a 1710 TLL Hamilton microsyringe (Teknokroma, Barcelona, Spain) with a 30^1/2-gauge needle. Control animals were injected with the same volume of the vehicle of capsaicin.
Animals were placed for 2 h in individual black-walled test compartments, which were situated on an elevated mesh-bottom platform with a 0.5-cm^2 grid to provide access to the ventral surface of the hind paws. Punctate mechanical stimulation was applied with a Dynamic Plantar Aesthesiometer (Ugo Basile, Varese, Italy) 15 min after capsaicin or saline administration (i.e., 45 min after the injection of the experimental drug). Briefly, a nonflexible filament (0.5 mm diameter) was electronically driven into the ventral side of the right hind paw (which was previously injected with capsaicin or vehicle) at least 5 mm away from the site of the injection toward the fingers. The intensity of the stimulation was fixed at 0.5 g force, as described previously.[49],[50] When a paw withdrawal response occurred, the stimulus was automatically terminated and the response latency was recorded. The filament was applied three times at intervals of 0.5 min, and the mean value of the three trials was considered the withdrawal latency time of the animal.

[2] = biological target: T1, S1R (Rattus norvegicus, UniProt Q9R0C9); assay: S1R functional assay: S1R radioligand binding with or without phenytoin; parameters: incubating 200 μL of membrane preparation with 50 μL of 20 nM; from tissue; host or cells: membrane preparation; conditions: for ratio Ki (nM) control/+ phenythoin: >1 agonist, ≤1 antagonist; for S1R functional profile in vitro (phenytoin assay): concluded from Ki ratio control/with phenytoin
Method: In order to further asses the functional profile of compounds 4b, 5b, and 8f, the well-established phenytoin-based functional assay was carried out.[52] Previous studies have shown that phenytoin, a low-potent allosteric modulator for the S1R, differentially modulates the affinity of S1R ligands depending on their agonist versus antagonist functionality.
The functionality of compounds 4b, 5b, and 8f on S1R was determined using the same radiolabeled binding assay for the S1R in the presence of phenytoin. […] The final volume was 0.5 mL.

[3] = biological target: T2, S2R (Rattus norvegicus, UniProt Q5U3Y7); assay: S2R radioligand binding assay, [3H]DTG with (+)-pentazocine as S1R masking agent, liver homogenates; parameters: species or system male Sprague-Dawley rats; conditions: read-out: Ki (nM) ± SD S2R
T2 construct: from tissue; host or cells: rat liver homogenate (male Sprague-Dawley)
T2 sequence (Q5U3Y7 1-176): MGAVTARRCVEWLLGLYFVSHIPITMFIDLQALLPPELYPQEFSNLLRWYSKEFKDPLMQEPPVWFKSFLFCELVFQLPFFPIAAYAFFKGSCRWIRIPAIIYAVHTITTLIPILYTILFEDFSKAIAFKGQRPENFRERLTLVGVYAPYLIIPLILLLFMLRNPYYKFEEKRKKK
Method: (§1) The Ki-values were calculated with the program GraphPad Prism 7.0 (GraphPad Software, San Diego, California). The Ki-values are given as mean value ± SD from at least two independent experiments performed in duplicate.

[4] = biological target: T1, S1R; assay: S1R radioligand binding assay, [3H](+)-pentazocine, liver homogenates; parameters: from tissue; host or cells: rat liver homogenate (male Sprague-Dawley); species or system male Sprague-Dawley rats; conditions: for KiS2R/KiS1R (preference for S1R over S2R): ratio of S2R Ki to S1R Ki; for Ki: read-out: Ki (nM) ± SD S1R
Method: as §1

[5] = with phenytoin (20 μL of 25 mM in 0.5 mL), 120 min at 37 °C, read-out: Ki (nM) + phenythoin
[6] = without phenytoin, read-out: Ki (nM) control

T1 sequence (Q9R0C9 whole entry): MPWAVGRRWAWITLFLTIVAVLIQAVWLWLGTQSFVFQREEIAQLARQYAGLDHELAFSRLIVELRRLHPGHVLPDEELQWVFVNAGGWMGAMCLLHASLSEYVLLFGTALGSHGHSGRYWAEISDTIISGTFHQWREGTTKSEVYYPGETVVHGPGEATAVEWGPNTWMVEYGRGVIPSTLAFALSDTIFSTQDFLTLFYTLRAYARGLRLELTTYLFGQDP

Row | Structure (SMILES) | antiallodynic effect, compound administered alone [1] | ratio Ki (nM) control/+ phenythoin [2] | S1R functional profile in vitro (phenytoin assay) [2] | Ki [2, 5] [nM] | Ki [2, 6] [nM] | Ki [3] [nM] | KiS2R/KiS1R (preference for S1R over S2R) [4] | Ki [4] [nM] | effect on the antiallodynic effect of BD-1063 ([1]; 4b 2.5–10 mg/kg s.c. associated with BD-1063 40 mg/kg s.c.) | S1R functional profile in vivo [1] | antiallodynic effect when associated with the S1R agonist PRE-084 [1] | dose reaching full reversal of mechanical hypersensitivity (maximum antiallodynic effect) [1] [mg/kg]
1 | Cl.O=C(OCCN1CCOCC1)C1(c2ccccc2)CCCCC1 [PRE-084, 2-(4-morpholinethyl)-1-phenyl cyclohexane carboxylate hydrochloride, reference compound] | did not modify the response latency |  |  |  |  |  |  |  |  |  |  | 
2 | C=CCN1CC[C@]2(C)c3cc(O)ccc3C[C@H]1[C@H]2C [SKF-10,047, reference compound] |  | 5.8 | agonist profile for the S1R | 17 | 99 |  |  |  |  |  |  | 
3 | c1ccc(CCCN2CC3(CCN(c4ccccc4)CC3)C2)cc1 [4d, 7-Phenyl-2-(3-phenylpropyl)-2,7-diazaspiro[3.5]nonane] |  |  |  |  |  | 51 ± 5 | 1.5 | 34 ± 7.7 |  |  |  | 
4 | c1ccc(CCCN2CCCC3CN(CCc4ccccc4)CC32)cc1 (stereo not drawn) [8g, 6-Phenethyl-1-(3-phenylpropyl)octahydro-1H-pyrrolo[3,4-b]pyridine] |  |  |  |  |  | 1030 ± 200 | 1.4 | 710 ± 150 |  |  |  | 
5 | c1ccc(CCN2CC3(CCN(Cc4ccccc4)CC3)C2)cc1 [4b, 7-Benzyl-2-phenethyl-2,7-diazaspiro[3.5]nonane] | completely devoid of antiallodynic effect; also recorded: no antiallodynic effect | 2.6 | agonist profile for the S1R | 1.2 | 3.2 | 27 ± 5.3 | ~10 | 2.7 ± 0.3 | fully reverse the antiallodynic effect of BD-1063 | S1R agonistic in vivo effect |  | 
6 | c1ccc(CCN2CC3(CCN(c4ccccc4)CC3)C2)cc1 [4a, 2-Phenethyl-7-phenyl-2,7-diazaspiro[3.5]nonane] |  |  |  |  |  | 77 ± 12 | 2.8 | 28 ± 2 |  |  |  | 
7 | c1ccc(CCN2CCCC3CN(c4ccccc4)CC32)cc1 (stereo not drawn) [8b, 1-Phenethyl-6-phenyloctahydro-1H-pyrrolo[3,4-b]pyridine] |  |  |  |  |  | 279 ± 83 | 0.6 | 505 ± 88 |  |  |  | 
8 | c1ccc(CCN2CC3CCCN(CCc4ccccc4)C3C2)cc1 (stereo not drawn) [8d, 1,6-Diphenethyloctahydro-1H-pyrrolo[3,4-b]pyridine] |  |  |  |  |  | 114 ± 15 | 0.07 | 1730 ± 403 |  |  |  | 
9 | c1ccc(CCCN2CCCC3CN(Cc4ccccc4)CC32)cc1 (stereo not drawn) [8f, 6-Benzyl-1-(3-phenylpropyl)octahydro-1H-pyrrolo[3,4-b]pyridine] | mimicked the effect of the known S1R antagonist | 0.8 | antagonists for the S1R | 12 | 9.6 | 165 ± 36 | 16.5 | 10 ± 1.6 |  | S1R antagonistic in vivo effect | abolish the antiallodynic effect; also recorded: completely reversed their antiallodynic action | 20
10 | c1ccc(CCN2CCCC3CN(Cc4ccccc4)CC32)cc1 (stereo not drawn) [8c, 6-Benzyl-1-phenethyloctahydro-1H-pyrrolo[3,4-b]pyridine] |  |  |  |  |  | 126 ± 19 |  | 19 ± 2.6 |  |  |  | 
11 | O=C(Cc1ccccc1)N1CCC2(CC1)CN(CCc1ccccc1)C2 [5b, 1-(2-Phenethyl-2,7-diazaspiro[3.5]nonan-7-yl)-2-phenylethan-1-one] | mimicked the effect of the known S1R antagonist | 0.9 | antagonists for the S1R | 14 | 12 | 102 ± 26 | 7.8 | 13 ± 2.5 |  | S1R antagonistic in vivo effect | abolish the antiallodynic effect; also recorded: completely reversed their antiallodynic action | 20
12 | c1ccc(CCN2CCC3(CC2)CN(CCc2ccccc2)C3)cc1 [4c, 2,7-Diphenethyl-2,7-diazaspiro[3.5]nonane] |  |  |  |  |  | 22 ± 2.5 | 6.3 | 3.5 ± 0.3 |  |  |  | 
13 | c1ccc(CCCN2CC3(CCN(CCc4ccccc4)CC3)C2)cc1 [4f, 7-Phenethyl-2-(3-phenylpropyl)-2,7-diazaspiro[3.5]nonane] |  |  |  |  |  | 149 ± 27 | 1.2 | 126 ± 22 |  |  |  | 
14 | c1ccc(CCCN2CCCC3CN(c4ccccc4)CC32)cc1 (stereo not drawn) [8e, 6-Phenyl-1-(3-phenylpropyl)octahydro-1H-pyrrolo[3,4-b]pyridine] |  |  |  |  |  | 91 ± 5.8 | 0.8 | 108 ± 31 |  |  |  | 
15 | c1ccc(CCCN2CC3(CCN(Cc4ccccc4)CC3)C2)cc1 [4e, 7-Benzyl-2-(3-phenylpropyl)-2,7-diazaspiro[3.5]nonane] |  |  |  |  |  | 31 ± 5.4 | 4.3 | 7.2 ± 0.5 |  |  |  | 
16 | c1ccc(CN2CCCC3CN(c4ccccc4)CC32)cc1 (stereo not drawn) [8a, 1-Benzyl-6-phenyloctahydro-1H-pyrrolo[3,4-b]pyridine] |  |  |  |  |  | 148 ± 29 | 0.6 | 254 ± 32 |  |  |  | 
17 | O=C(c1ccccc1)N1CCC2(CC1)CN(CCc1ccccc1)C2 [5a, (2-Phenethyl-2,7-diazaspiro[3.5]nonan-7-yl)(phenyl)methanone] |  |  |  |  |  | 255 ± 62 | 6.8 | 37 ± 9.6 |  |  |  | 
18 | CN1CCN(CCc2ccc(Cl)c(Cl)c2)CC1.Cl.Cl [BD-1063, 1-[2-(3,4-dichlorophenyl)ethyl]-4-methylpiperazine dihydrochloride, reference compound] | full and dose-dependent reduction of mechanical hypersensitivity | 0.7 |  | 10 | 6.7 |  |  |  |  |  | abolish the antiallodynic effect | 40
